The values below come from patent US10583137B2, “Triazole DAGLα inhibitors” (THE SCRIPPS RESEARCH INSTITUTE, priority 2015, dated 2020).

The target in one test is DAGLα (hDAGLα-FLAG) (Homo sapiens (Human), UniProt Q9Y4D2). Briefly: competitive ABPP, membrane proteome of transfected HEK293T cells. The conditions noted are these: for inhibition at 0.8 µM / DAGLα % inh. 0.8 μM: 0.8 μM (stated under the cell); for inhibition at 0.8 µM: read-out: DAGLα % inh. 0.8 μM; for inhibition at 0.0032 µM: 3.2 nM, read-out: DAGLα % inh. 3.2 nM. The format is biochemical. As to the method: (§1) Compounds 19 and 20 were tested for in vitro inhibition of DAGLα and DAGLβ as measured by competitive activity-based protein profiling (ABPP) of […] using a HT-01 probe (targets DAGLα and DAGLβ) and a FP-Rh probe (targets serine hydrolases).
DAGLα (hDAGLα-FLAG), sequence (Q9Y4D2 whole entry): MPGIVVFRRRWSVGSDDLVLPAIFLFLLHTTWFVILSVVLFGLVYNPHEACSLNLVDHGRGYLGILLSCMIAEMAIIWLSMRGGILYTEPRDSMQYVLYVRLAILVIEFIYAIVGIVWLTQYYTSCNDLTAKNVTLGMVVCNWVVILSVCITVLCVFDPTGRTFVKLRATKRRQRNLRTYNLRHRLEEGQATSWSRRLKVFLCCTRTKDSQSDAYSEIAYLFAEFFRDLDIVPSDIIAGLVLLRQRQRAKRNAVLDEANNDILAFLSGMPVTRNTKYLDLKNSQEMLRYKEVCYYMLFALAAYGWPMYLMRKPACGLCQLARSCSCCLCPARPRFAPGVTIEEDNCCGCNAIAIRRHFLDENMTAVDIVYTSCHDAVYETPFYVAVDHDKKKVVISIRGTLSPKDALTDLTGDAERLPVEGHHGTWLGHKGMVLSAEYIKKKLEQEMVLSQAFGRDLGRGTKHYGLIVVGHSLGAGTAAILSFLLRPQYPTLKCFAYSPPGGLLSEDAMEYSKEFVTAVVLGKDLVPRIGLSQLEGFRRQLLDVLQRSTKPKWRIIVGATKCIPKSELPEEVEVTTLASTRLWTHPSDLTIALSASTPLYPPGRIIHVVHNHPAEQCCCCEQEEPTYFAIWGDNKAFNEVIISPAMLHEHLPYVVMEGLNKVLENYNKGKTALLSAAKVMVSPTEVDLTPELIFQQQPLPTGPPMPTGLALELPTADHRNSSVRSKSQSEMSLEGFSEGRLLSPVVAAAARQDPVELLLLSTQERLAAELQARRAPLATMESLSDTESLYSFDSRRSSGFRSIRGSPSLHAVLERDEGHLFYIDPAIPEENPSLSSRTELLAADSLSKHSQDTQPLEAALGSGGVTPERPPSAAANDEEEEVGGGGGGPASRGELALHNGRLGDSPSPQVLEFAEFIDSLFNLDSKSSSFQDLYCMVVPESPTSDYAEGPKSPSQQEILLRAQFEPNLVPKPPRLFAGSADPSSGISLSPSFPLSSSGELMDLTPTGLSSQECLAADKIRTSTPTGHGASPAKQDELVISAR
(§2) Briefly, membrane proteome (1 mg/ml, 20 μL) was prepared from HEK293T cells (transiently transfected with hDAGLα-FLAG or hDAGLα-S472A-FLAG, hDAGLβ-FLAG or hDAGLβ-S443A-FLAG) as described in Example 16. The proteome was incubated at room temperature with vehicle (DMSO) or compound in 0.5 μL DMSO for 30 min. The membrane proteome sample was subsequently treated for 30 min with HT-01 probe (1 μM) or FP-Rh probe (1 μM). The reactions were quenched with 10 μL 3× Laemmli sample buffer (final concentrations: 60 mM Tris-Cl pH 6.8, 2% (w/v) SDS, 10% (v/v) glycerol, 5% (v/v) (3-mercaptoethanol, 0.01% (v/v) bromophenol blue). The samples were directly loaded and resolved on SDS page gel (10% acrylamide). The gels were scanned using a ChemiDoc MP system (Cy3 settings, 605/50 filter).
(§3) The resolved proteins were transferred from the gels to a polyvinyldifluoride membrane for Western Blotting using a Trans-Blot® Turbo (BioRad). FLAG-tagged enzymes were stained using rabbit anti-FLAG as primary antibody, and goat-anti-rabbit HRP as secondary antibody. The blot was developed in the dark using a 10 mL luminal solution, 100 μL ECL enhancer and 3 μL H2O2. Chemiluminescence was visualized using a ChemiDoc XRS (BioRad).
(§4) The percentage of DAGL activity remaining in the assayed samples was determined by measuring the integrated optical intensity of the fluorescent protein bands of the Western Blot using image lab 4.1. The relative intensity was compared to the vehicle (DMSO) treated proteins, which were set to 100%. IC50 values were determined by plotting a log(inhibitor) vs. normalized response (Variable slope) dose-response curve generated using Prism software (GraphPad).

The target in the next test is DAGLβ (hDAGLβ-FLAG) (Homo sapiens (Human), UniProt Q8NCG7). The test is described as above. The format is biochemical. As to conditions: for inhibition at 0.8 µM: read-out: DAGLβ % inh. 0.8 μM; for inhibition at 0.0032 µM: read-out: DAGLβ % inh. 3.2 nM. As to the method:
as §1, §2, §3, §4

[1] abbreviates: ABPP method, n=3, read-out: IC50, DAGLα.
[2] abbreviates: ABPP method, n=3, read-out: IC50, DAGLβ.

Like-named read-outs stand apart in the source and are kept apart here.

DAGLβ (hDAGLβ-FLAG), sequence (Q8NCG7 whole entry): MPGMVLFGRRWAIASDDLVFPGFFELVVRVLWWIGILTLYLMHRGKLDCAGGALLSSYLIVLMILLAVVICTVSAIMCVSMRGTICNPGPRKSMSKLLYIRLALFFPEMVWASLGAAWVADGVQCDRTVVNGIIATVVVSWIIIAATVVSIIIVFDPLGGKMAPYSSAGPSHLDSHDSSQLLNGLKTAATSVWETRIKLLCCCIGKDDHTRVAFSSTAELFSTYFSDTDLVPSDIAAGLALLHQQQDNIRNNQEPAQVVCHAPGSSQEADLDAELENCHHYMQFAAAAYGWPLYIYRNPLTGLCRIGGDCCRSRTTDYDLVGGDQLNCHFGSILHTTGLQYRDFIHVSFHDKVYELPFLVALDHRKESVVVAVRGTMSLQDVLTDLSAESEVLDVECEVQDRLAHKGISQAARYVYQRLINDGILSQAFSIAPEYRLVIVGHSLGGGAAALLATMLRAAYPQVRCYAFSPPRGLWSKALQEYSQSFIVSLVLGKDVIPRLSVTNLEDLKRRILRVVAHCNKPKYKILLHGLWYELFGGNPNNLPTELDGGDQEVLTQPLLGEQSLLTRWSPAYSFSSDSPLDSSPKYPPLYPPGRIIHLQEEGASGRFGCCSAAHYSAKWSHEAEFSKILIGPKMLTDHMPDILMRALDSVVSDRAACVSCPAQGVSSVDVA

On to `COc1cncc(OC)c1-c1ccc(-c2cn(C(=O)N3CCCCC3Cc3ccccc3)nn2)cc1` (stereo not shown) [Compound 19, (2-Benzylpiperidin-1-yl)(4-(4-(3,5-dimethoxypyridin-4-yl)phenyl)-1H-1,2,3-triazol-1-yl)methanone], for which the IC50 is 0.0095 µM at DAGLα (hDAGLα-FLAG) (setting [1]), no more than 0.4 µM at DAGLα (hDAGLα-FLAG) (read-out: DAGLα IC50), 0.106 µM on DAGLβ (hDAGLβ-FLAG) (setting [2]) and no more than 0.4 µM at DAGLβ (hDAGLβ-FLAG) (read-out: DAGLβ IC50).
Regarding `COc1cc(OC)c(-c2ccc(-c3cn(C(=O)N4CCCCC4Cc4ccccc4)nn3)cc2)c(OC)c1` (stereo not shown) [Compound 20, (2-Benzylpiperidin-1-yl)(4-(2′,4′,6′-trimethoxybiphenyl-4-yl)-1H-1,2,3-triazol-1-yl)methanone], the IC50 was 0.016 µM at DAGLα (hDAGLα-FLAG) (setting [1]), no more than 0.4 µM at DAGLα (hDAGLα-FLAG) (read-out: DAGLα IC50), 0.319 µM at DAGLβ (hDAGLβ-FLAG) (setting [2]) and no more than 0.4 µM on DAGLβ (hDAGLβ-FLAG) (read-out: DAGLβ IC50).
With `CC(C)(C)OC(=O)N1CCN(C(=O)n2ncc(-c3ccc(OC(F)(F)F)cc3)n2)C(c2ccccc2)C1` (stereo not shown) [Compound 23, tert-butyl 3-phenyl-4-(4-(4-(trifluoromethoxy)phenyl)-2H-1,2,3-triazole-2-carbonyl)piperazine-1-carboxylate], the inhibition at 0.8 µM at DAGLα (hDAGLα-FLAG) and at DAGLβ (hDAGLβ-FLAG) (0.8 μM (stated under the cell)) was 0 to 25% each time.
Turning to `CC(C)C(=O)N1CCN(C(=O)n2cc(-c3ccc(OC(F)(F)F)cc3)nn2)C(Cc2ccccc2)C1` (stereo not shown) [Compound 26, 1-(3-benzyl-4-(4-(4-(trifluoromethoxy)phenyl)-1H-1,2,3-triazole-1-carbonyl)piperazin-1-yl)-2-methylpropan-1-one], at DAGLα (hDAGLα-FLAG), the “DAGLα % inh. 0.8 μM” value is “* (% inhibition greater than or equal to 0% and less than 25%)”. Moreover, the inhibition at 0.8 µM on DAGLβ (hDAGLβ-FLAG) (0.8 μM (stated under the cell)) fell in the range of 0 to 25%.
In the case of `CC(C)C(=O)N1CCN(C(=O)n2ncc(-c3ccc(OC(F)(F)F)cc3)n2)C(Cc2ccccc2)C1` (stereo not shown) [Compound 27, 1-(3-benzyl-4-(4-(4-(trifluoromethoxy)phenyl)-2H-1,2,3-triazole-2-carbonyl)piperazin-1-yl)-2-methylpropan-1-one], the inhibition at 0.8 µM on DAGLα (hDAGLα-FLAG) and at DAGLβ (hDAGLβ-FLAG) (0.8 μM (stated under the cell)) was 0 to 25% in each case.
Consider `CC(C)C(=O)N1CCN(C(=O)n2cc(-c3ccc(OC(F)(F)F)cc3)nn2)C(Cc2ccccc2)C1` (stereo not shown) [Compound 30, 1-(3-benzyl-4-(4-(4-(trifluoromethoxy)phenyl)-1H-1,2,3-triazole-1-carbonyl)piperazin-1-yl)-2-methylpropan-1-one], for which, on DAGLα (hDAGLα-FLAG), the “DAGLα % inh. 0.8 μM” value is “*** (% inhibition greater than or equal to 50% and less than 75%)”. Also, the “DAGLβ % inh. 0.8 μM” value on DAGLβ (hDAGLβ-FLAG) (0.8 μM (stated under the cell)) was “* (% inhibition greater than or equal to 0% and less than 25%)”.
For `C#CCCCC(=O)N1CCN(C(=O)n2cc(-c3ccc(OC(F)(F)F)cc3)nn2)C(Cc2ccccc2)C1` (stereo not shown) [Compound 34, 1-(3-benzyl-4-(4-(4-(trifluoromethoxy)phenyl)-1H-1,2,3-triazole-1-carbonyl)piperazin-1-yl)hex-5-yn-1-one], the inhibition at 0.8 µM lay within 25 to 50% on DAGLα (hDAGLα-FLAG) and 0 to 25% on DAGLβ (hDAGLβ-FLAG) (0.8 μM (stated under the cell)).
In the same order, the values of `C#CCCCC(=O)N1CCN(C(=O)n2ncc(-c3ccc(OC(F)(F)F)cc3)n2)C(Cc2ccccc2)C1` (stereo not shown) [Compound 35, 1-(3-benzyl-4-(4-(4-(trifluoromethoxy)phenyl)-2H-1,2,3-triazole-2-carbonyl)piperazin-1-yl)hex-5-yn-1-one] are 0 to 25% and 0 to 25%.
`O=C(N1C[C@@H](OCC2CC2)CC[C@@H]1Cc1ccccc1)n1cc(-c2ccc(OC(F)(F)F)cc2)nn1` [Compound 44, ((2R,5S)-2-benzyl-5-(cyclopropylmethoxy)piperidin-1-yl)(4-(4-(trifluoromethoxy)phenyl)-1H-1,2,3-triazol-1-yl)methanone]: the inhibition at 0.0032 µM at DAGLα (hDAGLα-FLAG) is 25 to 50%; at DAGLβ (hDAGLβ-FLAG), 0 to 25%.
As for `O=C(N1C[C@@H](OCC2CC2)CC[C@@H]1Cc1ccccc1)n1ncc(-c2ccc(OC(F)(F)F)cc2)n1` [Compound 45, ((2R,5S)-2-benzyl-5-(cyclopropylmethoxy)piperidin-1-yl)(4-(4-(trifluoromethoxy)phenyl)-2H-1,2,3-triazol-2-yl)methanone], the inhibition at 0.0032 µM on DAGLα (hDAGLα-FLAG) lay in the range of 25 to 50%; on DAGLβ (hDAGLβ-FLAG), 0 to 25%.
In the same order, the values of `O=C(N1C[C@H](O)C=C[C@@H]1COCc1ccccc1)n1cc(-c2ccc(OC(F)(F)F)cc2)nn1` [Compound 50, ((3R,6R)-6-((Benzyloxy)methyl)-3-hydroxy-3,6-dihydropyridin-1(2H)-yl)(4-(4-(trifluoromethoxy)phenyl)-1H-1,2,3-triazol-1-yl)methanone] are 0 to 25% and 0 to 25%.
In the same order, the values of `O=C(N1C[C@H](O)C=C[C@@H]1COCc1ccccc1)n1ncc(-c2ccc(OC(F)(F)F)cc2)n1` [Compound 51, ((3R,6R)-6-((Benzyloxy)methyl)-3-hydroxy-3,6-dihydropyridin-1(2H)-yl)(4-(4-(trifluoromethoxy)phenyl)-2H-1,2,3-triazol-2-yl)methanone] are 0 to 25% and 0 to 25%.
Consider `CCC(CC)CN(CCc1ccncc1)C(=O)n1cc(-c2ccc(OC(F)(F)F)cc2)nn1` [Compound 53, N-(2-Ethylbutyl)-N-(2-(pyridin-4-yl)ethyl)-4-(4-(trifluoromethoxy)phenyl)-1H-1,2,3-triazole-1-carboxamide], for which the IC50 at DAGLα (hDAGLα-FLAG) (read-out: DAGLα IC50) is 0.4 to 2 µM; at DAGLβ (hDAGLβ-FLAG) (read-out: DAGLβ IC50), no more than 0.4 µM.
For `CCC(CC)CN(CCc1ccncc1)C(=O)n1ncc(-c2ccc(OC(F)(F)F)cc2)n1` [Compound 54, N-(2-Ethylbutyl)-N-(2-(pyridin-4-yl)ethyl)-4-(4-(trifluoromethoxy)phenyl)-2H-1,2,3-triazole-2-carboxamide], in that order: greater than 10 µM and 2 to 10 µM.
In the same order, the values of `O=C(N1CCCCC1Cc1ccccc1)n1cc(-c2ccc(-c3ccncc3)cc2)nn1` (stereo not shown) [Compound 59, (2-benzylpiperidin-1-yl)(4-(4-(pyridin-4-yl)phenyl)-1H-1,2,3-triazol-1-yl)methanone] are 0.4 to 2 µM and 2 to 10 µM.
In the same order, the values of `O=C(N1CCCCC1Cc1ccccc1)n1cc(-c2ccc(-c3cccnc3)cc2)nn1` (stereo not shown) [Compound 60, (2-benzylpiperidin-1-yl)(4-(4-(pyridin-3-yl)phenyl)-1H-1,2,3-triazol-1-yl)methanone] are no more than 0.4 µM and 2 to 10 µM.
`O=C(N1CCCCC1Cc1ccccc1)n1cc(-c2ccc(-c3ccccn3)cc2)nn1` (stereo not shown) [Compound 61, (2-benzylpiperidin-1-yl)(4-(4-(pyridin-2-yl)phenyl)-1H-1,2,3-triazol-1-yl)methanone]: the IC50 at DAGLα (hDAGLα-FLAG) (read-out: DAGLα IC50) lay within 0.4 to 2 µM; at DAGLβ (hDAGLβ-FLAG) (read-out: DAGLβ IC50) it was 2 to 10 µM.
For `COc1ccc(-c2ccc(-c3cn(C(=O)N4CCCCC4Cc4ccccc4)nn3)cc2)c(OC)c1` (stereo not shown) [Compound 62, (2-benzylpiperidin-1-yl)(4-(2′,4′-dimethoxy-[1,1′-biphenyl]-4-yl)-1H-1,2,3-triazol-1-yl)methanone], the IC50 on DAGLα (hDAGLα-FLAG) (read-out: DAGLα IC50) is no more than 0.4 µM; on DAGLβ (hDAGLβ-FLAG) (read-out: DAGLβ IC50), 2 to 10 µM.
Consider `COc1cccc(OC)c1-c1ccc(-c2cn(C(=O)N3CCCCC3Cc3ccccc3)nn2)cc1` (stereo not shown) [Compound 63, (2-benzylpiperidin-1-yl)(4-(2′,6′-dimethoxy-[1,1′-biphenyl]-4-yl)-1H-1,2,3-triazol-1-yl)methanone], for which the 50% inhibitory concentration (IC50) was no more than 0.4 µM at DAGLα (hDAGLα-FLAG) (read-out: DAGLα IC50) and 2 to 10 µM on DAGLβ (hDAGLβ-FLAG) (read-out: DAGLβ IC50).
In the same order, the values of `COc1cc(C)cc(OC)c1-c1ccc(-c2cn(C(=O)N3CCCCC3Cc3ccccc3)nn2)cc1` (stereo not shown) [Compound 64, (2-benzylpiperidin-1-yl)(4-(2′,6′-dimethoxy-4′-methyl-[1,1′-biphenyl]-4-yl)-1H-1,2,3-triazol-1-yl)methanone] are no more than 0.4 µM and 2 to 10 µM.
In the same order, the values of `COc1cnccc1-c1ccc(-c2cn(C(=O)N3CCCCC3Cc3ccccc3)nn2)cc1` (stereo not shown) [Compound 65, (2-benzylpiperidin-1-yl)(4-(4-(3-methoxypyridin-4-yl)phenyl)-1H-1,2,3-triazol-1-yl)methanone] are 0.4 to 2 µM and 2 to 10 µM.
In the same order, the values of `O=C(N1CCCCC1Cc1ccncc1)n1cc(-c2ccc(-c3ccccc3)cc2)nn1` (stereo not shown) [Compound 66, (4-([1,1′-biphenyl]-4-yl)-1H-1,2,3-triazol-1-yl)(2-(pyridin-4-ylmethyl)piperidin-1-yl)methanone] are no more than 0.4 µM and no more than 0.4 µM.
`CCC(CC)CN(CCc1ccccc1)C(=O)n1ncc(-c2ccc(OC(F)(F)F)cc2)n1` [Compound 126, N-(2-ethylbutyl)-N-phenethyl-4-(4-(trifluoromethoxy)phenyl)-2H-1,2,3-triazole-2-carboxamide]: on DAGLα (hDAGLα-FLAG) (read-out: DAGLα IC50), the IC50 was 2 to 10 µM.

By IC50 is commonly meant the midpoint of a concentration-inhibition curve.
